# In ChEMBL document CHEMBL5518219, “Development of a Series of Pyrrolopyridone MAT2A Inhibitors” (J Med Chem, 2024):
# Active and inactive are the calls of the source. The calls are words filed in the database; no cut-off is given here.
# How the values were obtained:
# [1] = Lipophilicity, logD of compound at pH 7.4 by shake flask method; assay type: physicochemical; details: buffer
# [2] = Metabolic stability in rat hepatocytes assessed as intrinsic clearance measured per 10^6 cells; assay type: ADME, cell-based, Hepatocyte
# [3] = molecular target: S-adenosylmethionine synthase isoform type-2 (Homo sapiens, UniProt P31153); assay: Binding affinity to MAT2a (unknown origin) assessed as dissociation constant by ITC analysis
# S-adenosylmethionine synthase isoform type-2, sequence (P31153 whole entry, canonical isoform): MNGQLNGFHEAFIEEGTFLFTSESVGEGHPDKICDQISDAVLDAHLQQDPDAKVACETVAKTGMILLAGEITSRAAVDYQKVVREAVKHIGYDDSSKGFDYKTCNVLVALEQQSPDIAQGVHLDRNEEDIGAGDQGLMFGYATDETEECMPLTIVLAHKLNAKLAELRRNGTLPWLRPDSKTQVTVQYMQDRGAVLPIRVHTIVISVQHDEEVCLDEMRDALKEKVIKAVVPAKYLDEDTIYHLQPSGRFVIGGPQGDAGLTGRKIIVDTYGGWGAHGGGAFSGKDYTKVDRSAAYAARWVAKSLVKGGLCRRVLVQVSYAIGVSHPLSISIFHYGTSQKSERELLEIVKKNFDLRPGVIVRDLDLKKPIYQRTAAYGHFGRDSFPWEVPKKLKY
# [4] = Metabolic stability in human liver microsomes assessed as intrinsic clearance; assay type: ADME, Microsome
# PXR = molecular target: T1, PXR (Homo sapiens, UniProt O75469); assay: Activation of human PXR assessed as fold change at 10 uM relative to DMSO; assay type: toxicity; details: read-out: FC
# T1 sequence (O75469 whole entry): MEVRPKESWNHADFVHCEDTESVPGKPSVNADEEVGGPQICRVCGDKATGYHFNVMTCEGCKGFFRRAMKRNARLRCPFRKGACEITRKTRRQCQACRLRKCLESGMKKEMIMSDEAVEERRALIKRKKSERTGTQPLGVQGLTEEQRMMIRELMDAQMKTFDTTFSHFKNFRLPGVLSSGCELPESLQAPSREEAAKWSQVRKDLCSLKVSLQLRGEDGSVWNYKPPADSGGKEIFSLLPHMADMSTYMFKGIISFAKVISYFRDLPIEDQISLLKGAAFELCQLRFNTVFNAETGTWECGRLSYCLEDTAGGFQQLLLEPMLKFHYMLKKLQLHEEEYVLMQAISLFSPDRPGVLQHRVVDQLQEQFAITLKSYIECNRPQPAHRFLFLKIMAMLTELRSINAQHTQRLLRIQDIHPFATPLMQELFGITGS
# cells = details: Homo sapiens, HCT116-MTAP null, 120 h, read-out: pGI50 (converted)
# HCT-116 = assay: cells; details: Homo sapiens, HCT-116, 120 h, read-out: pGI50 (converted)
# [5] = Apparent permeability in human Caco-2 cells at 10 uM; assay type: ADME, cell-based
# [6] = Aqueous solubility in phosphate buffer at pH 7.4 measured after 24 hrs; assay type: physicochemical
# [7] = Plasma protein binding in mouse assessed as free fraction by equilibrium dialysis; assay type: ADME, cell-free
# [8] = Plasma protein binding in rat assessed as free fraction by equilibrium dialysis; assay type: ADME, cell-free
# [9] = Plasma protein binding in dog assessed as free fraction by equilibrium dialysis; assay type: ADME, cell-free, Canis lupus familiaris
# [10] = Plasma protein binding in human assessed as free fraction by equilibrium dialysis; assay type: ADME, cell-free
# [11] = Intrinsic clearance in mouse hepatocytes measured per 10^6 cells; assay type: ADME, cell-based, Hepatocyte; details: read-out: CLH
# [12] = Volume of distribution at steady state in mouse at 1 mg/kg, po or 0.5 mg/kg, iv; assay type: ADME, organism-based; details: in vivo
# [13] = Half life in mouse at 1 mg/kg, po or 0.5 mg/kg, iv; assay type: ADME, organism-based; details: in vivo
# [14] = Oral bioavailability in mouse at 1 mg/kg; assay type: ADME, organism-based; details: in vivo
# [15] = Volume of distribution at steady state in rat at 1 mg/kg, po or 0.5 mg/kg, iv; assay type: ADME, organism-based; details: in vivo
# [16] = Half life in rat at 1 mg/kg, po or 0.5 mg/kg, iv; assay type: ADME, organism-based; details: in vivo
# [17] = Oral bioavailability in rat at 1 mg/kg; assay type: ADME, organism-based; details: in vivo
# [18] = Solubility in FaSSIF at pH 6.5; assay type: ADME
# [19] = Solubility in FeSSIF at pH 5; assay type: ADME
# [20] = Solubility in simulated gastric fluid at pH 1; assay type: ADME
# [21] = Unbound fraction in nude mouse plasma at 30 mg/kg, po measured after 24 hrs; assay type: ADME, organism-based
# [22] = Unbound brain-to-plasma concentration ratio in rat; assay type: ADME, cell-free; details: read-out: K(p,uu,brain)
# NCI-H441 = assay: Antiproliferative activity against human NCI-H441 cells harboring MTAP knockout; assay type: functional, cell-based
# HCT116-MTAP null = assay: Antitumor activity against human HCT116-MTAP null cells xenografted in NCR nude mouse assessed as reduction in tumor volume at 20 mg/kg, po administered twice daily for 24 days and measured twice weekly; assay type: functional, organism-based; details: time 24.0 day
# animal or person [23] = details: Mus musculus, NCR nude, HCT116-MTAP null, po, read-out: INH
# animal or person [24] = details: Mus musculus, NCR nude, HCT116-MTAP null, po, read-out: INH; remark: listed apart in the source
smiles,measurement,setting,value
COc1ccc(-c2cc3[nH]nc(C4CC4)c3n(-c3ccc(OC(F)F)cc3)c2=O)cc1,logD,[1],4
same,hepatocyte CLint,[2],7 µL/min/1e6 cells
CN(C)CCc1nnc2cc(-c3ccccc3)c3cc(Cl)ccc3n12,Kd,[3],170 nM
O=c1c(-c2ccc(O)cc2)cc2[nH]nc(C3CC3)c2n1-c1ccc(OC(F)F)cc1,logD,[1],3.4
same,hepatocyte CLint,[2],2 µL/min/1e6 cells
Cc1ncc(-n2c(=O)c(-c3ccc4nn(C)cc4c3)cc3[nH]nc(C4CC4)c32)cn1,logD,[1],1.6
same,hepatocyte CLint,[2],< 1 µL/min/1e6 cells
Cn1nnc2ccc(-c3cc4[nH]nc(C5CC5)c4n(-c4ccc(OC(F)F)cc4)c3=O)cc21,logD,[1],3.1
same,hepatocyte CLint,[2],< 1 µL/min/1e6 cells
Cn1cc2cc(-c3cc4[nH]nc(C5CC5)c4n(-c4ccc(OC(F)F)cn4)c3=O)ccc2n1,logD,[1],2.5
same,hepatocyte CLint,[2],2 µL/min/1e6 cells
COc1ccc(-c2c3c(C4CC4)n[nH]c3cc[n+]2[O-])cc1,logD,[1],1.3
same,microsomal CLint,[4],< 3 µL/min/mg
same,hepatocyte CLint,[2],< 1 µL/min/1e6 cells
Cn1cc2cc(-c3cc4[nH]nc(C5CC5)c4n(-c4ccc(CO)cc4)c3=O)ccc2n1,logD,[1],2.2
same,hepatocyte CLint,[2],35 µL/min/1e6 cells
Cc1ccc(-n2c(=O)c(-c3ccc4nn(C)cc4c3)cc3[nH]nc(C4CC4)c32)cn1,logD,[1],2.2
same,hepatocyte CLint,[2],< 1 µL/min/1e6 cells
[O-][n+]1ccc2[nH]nc(C3CC3)c2c1-c1ccc(OC(F)F)cc1,logD,[1],1.6
same,microsomal CLint,[4],< 3 µL/min/mg
same,hepatocyte CLint,[2],< 1 µL/min/1e6 cells
CCc1ccc(-n2c(=O)c(-c3ccc4nn(C)cc4c3)cc3[nH]nc(C4CC4)c32)cn1,logD,[1],2.4
same,hepatocyte CLint,[2],19 µL/min/1e6 cells
Cc1ccc(-n2c(=O)c(-c3ccc4nn(C)cc4c3)cc3[nH]nc(C4CC4)c32)cc1,logD,[1],3.3
same,hepatocyte CLint,[2],25 µL/min/1e6 cells
C[C@@H](O)c1ccc(-n2c(=O)c(-c3ccc4nn(C)cc4c3)cc3[nH]nc(C4CC4)c32)cc1,logD,[1],2.4
same,hepatocyte CLint,[2],5 µL/min/1e6 cells
FC(F)Oc1ccc(-c2nccc3[nH]nc(C4CC4)c23)cc1,logD,[1],3.8
same,microsomal CLint,[4],54 µL/min/mg
same,hepatocyte CLint,[2],20 µL/min/1e6 cells
Cc1nc2ccc(-c3cc4[nH]nc(C5CC5)c4n(-c4ccc(OC(F)F)cc4)c3=O)cc2n1C,logD,[1],3.5
same,hepatocyte CLint,[2],< 2 µL/min/1e6 cells
COc1ccc(-n2cc3cnc(NCC(F)(F)F)nc3c(-c3ccc(Br)cc3)c2=O)cc1,fold induction at 10 µM,PXR,25
Cn1cc2ccc(-c3cc4[nH]nc(C5CC5)c4n(-c4ccc(OC(F)F)cc4)c3=O)cc2n1,logD,[1],3.4
same,hepatocyte CLint,[2],25 µL/min/1e6 cells
COc1ccc(-n2c(=O)c(-c3ccc4nn(C)cc4c3)cc3[nH]nc(C4CC4)c32)cc1,logD,[1],2.8
same,hepatocyte CLint,[2],3 µL/min/1e6 cells
Cn1cc2cc(-c3cc4[nH]nc(C5CC5)c4n(-c4ccc(Cl)cc4)c3=O)ccc2n1,logD,[1],3.4
same,hepatocyte CLint,[2],5 µL/min/1e6 cells
COc1ccc(-c2c(Nc3ccccn3)[nH]c3c(C4=CCCCC4)c(-c4ccccc4)nn3c2=O)cc1,GI50,cells,501 nM
same,GI50,HCT-116,1580 nM
COc1ccc(-c2cc3[nH]nc(C4CC4)c3c(-c3ccc(OC(F)F)cc3)n2)cc1,logD,[1],> 4.5
same,microsomal CLint,[4],21 µL/min/mg
same,hepatocyte CLint,[2],26 µL/min/1e6 cells
Cc1ccc(-n2c(=O)c(-c3ccc4nn(C)cc4c3)cc3[nH]nc(C4CC4)c32)nc1,logD,[1],2.2
same,hepatocyte CLint,[2],5 µL/min/1e6 cells
O=c1c(-c2ccccc2)cc2[nH]nc(C3CC3)c2n1-c1ccc(OC(F)F)cc1,logD,[1],4
same,hepatocyte CLint,[2],14 µL/min/1e6 cells
COc1ccc(-c2nccc3[nH]nc(C4CC4)c23)cc1,logD,[1],3.3
same,microsomal CLint,[4],89 µL/min/mg
same,hepatocyte CLint,[2],38 µL/min/1e6 cells
O=c1ccc2[nH]nc(C3CC3)c2n1-c1ccc(OC(F)F)cc1,logD,[1],2.1
same,microsomal CLint,[4],< 3 µL/min/mg
same,hepatocyte CLint,[2],1 µL/min/1e6 cells
Cn1cc2cc(-c3cc4[nH]nc(C5CC5)c4n(-c4ccc(CCO)cc4)c3=O)ccc2n1,logD,[1],2.3
same,hepatocyte CLint,[2],4 µL/min/1e6 cells
CNc1ccc(-n2c(=O)c(-c3ccc4nn(C)cc4c3)cc3[nH]nc(C4CC4)c32)cn1,logD,[1],2.3
same,hepatocyte CLint,[2],< 1 µL/min/1e6 cells
Cn1cc2cc(-c3cc4[nH]nc(C5CC5)c4n(-c4ccc(OC(F)F)nc4)c3=O)ccc2n1,logD,[1],3
same,hepatocyte CLint,[2],< 1 µL/min/1e6 cells
N#Cc1cc2[nH]nc(C3CC3)c2c(-c2ccc(OC(F)F)cc2)n1,logD,[1],3.9
same,microsomal CLint,[4],< 3 µL/min/mg
same,hepatocyte CLint,[2],5 µL/min/1e6 cells
Cn1cc(-c2cc3[nH]nc(C4CC4)c3n(-c3ccc(OC(F)F)cc3)c2=O)ccc1=O,logD,[1],2
same,hepatocyte CLint,[2],< 1 µL/min/1e6 cells
CCc1n[nH]c2cc(-c3ccc4nn(C)cc4c3)c(=O)n(-c3ccc(OC(F)F)cc3)c12,logD,[1],3.1
same,hepatocyte CLint,[2],< 1 µL/min/1e6 cells
Cn1cc2cc(-c3cc4[nH]nc(C5CC5)c4n(-c4ccc(OC(F)F)cc4)c3=O)ccc2n1,logD,[1],3.4
same,hepatocyte CLint,[2],< 1 µL/min/1e6 cells
same,Papp at 10 µM,[5],9.4 ×10⁻⁶ cm/s
same,solubility at 24 h,[6],3.2 µM
same,fraction unbound,[7],0.03
same,fraction unbound,[8],0.006
same,fraction unbound,[9],0.12
same,fraction unbound,[10],0.032
same,hepatocyte CLint,[11],1.4 µL/min/1e6 cells
same,Vdss,[12],5.5 L/kg
same,half-life,[13],3 h
same,bioavailability,[14],100%
same,Vdss,[15],0.8 L/kg
same,half-life,[16],6.3 h
same,bioavailability,[17],100%
same,solubility,[18],3.3 µM
same,solubility,[19],11.2 µM
same,solubility,[20],70.4 µM
same,fraction unbound at 24 h,[21],0.029
same,Kp uu,[22],0.03
same,Activity,NCI-H441,Active
same,Activity,HCT116-MTAP null,Active
same,GI50,cells,79.4 nM
same,inhibition in vivo at 20 mg/kg,animal or person [23],> 90%
same,inhibition in vivo at 20 mg/kg,animal or person [24],> 90%
COc1ccc(-c2cc3[nH]nc(C4CC4)c3n(-c3ccc(OC(F)F)cc3)c2=O)nc1,logD,[1],3.4
same,hepatocyte CLint,[2],7 µL/min/1e6 cells
COc1ccc(-c2cc3[nH]nc(C4CC4)c3n(-c3ccc(OC(F)F)cc3)c2=O)cn1,logD,[1],3.5
same,hepatocyte CLint,[2],3 µL/min/1e6 cells
Cc1n[nH]c2cc(-c3ccc4nn(C)cc4c3)c(=O)n(-c3ccc(OC(F)F)cc3)c12,logD,[1],3
same,hepatocyte CLint,[2],< 1 µL/min/1e6 cells
Cn1cc2cc(-c3cc4[nH]nc([C@@H]5CCOC5)c4n(-c4ccc(OC(F)F)cc4)c3=O)ccc2n1,logD,[1],2.5
same,hepatocyte CLint,[2],4 µL/min/1e6 cells
